Values of other authors, collected in patent publication US11965206B2, “Method of dosing a patient with multiple drugs using adjusted phenotypes of CYP450 enzymes” (priority 2018, dated 2024).
Read-outs that look alike come from different tables or passages of the source.

Key:
[1] = target: CYP450 enzyme 2D6 (Homo sapiens, UniProt P10635)
[2] = target: CYP450 enzyme 2C19 (Homo sapiens, UniProt P33261); conditions: found in drug databases
[3] = target: CYP450 enzyme 2C9 (Homo sapiens, UniProt P11712); conditions: found in drug databases
[4] = target: T1, CYP450 enzyme 2B6 (Homo sapiens, UniProt P20813); conditions: found in drug databases
T1 sequence (P20813 1-491): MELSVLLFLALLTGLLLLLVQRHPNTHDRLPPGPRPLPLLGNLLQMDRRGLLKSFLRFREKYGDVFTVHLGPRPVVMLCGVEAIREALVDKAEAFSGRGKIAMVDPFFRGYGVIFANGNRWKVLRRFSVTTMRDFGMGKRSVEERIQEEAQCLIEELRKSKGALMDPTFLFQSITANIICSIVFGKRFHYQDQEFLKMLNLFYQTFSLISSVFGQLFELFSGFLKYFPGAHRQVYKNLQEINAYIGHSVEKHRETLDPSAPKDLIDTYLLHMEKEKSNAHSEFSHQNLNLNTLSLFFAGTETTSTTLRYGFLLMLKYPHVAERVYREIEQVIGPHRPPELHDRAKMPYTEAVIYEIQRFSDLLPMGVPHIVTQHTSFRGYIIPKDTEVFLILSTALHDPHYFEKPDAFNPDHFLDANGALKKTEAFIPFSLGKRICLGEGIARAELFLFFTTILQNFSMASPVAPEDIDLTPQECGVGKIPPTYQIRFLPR

[5] = target: CYP450 enzyme 3A4 (Homo sapiens, UniProt P08684)
Chain of CYP450 enzyme 3A4 (P08684 whole entry): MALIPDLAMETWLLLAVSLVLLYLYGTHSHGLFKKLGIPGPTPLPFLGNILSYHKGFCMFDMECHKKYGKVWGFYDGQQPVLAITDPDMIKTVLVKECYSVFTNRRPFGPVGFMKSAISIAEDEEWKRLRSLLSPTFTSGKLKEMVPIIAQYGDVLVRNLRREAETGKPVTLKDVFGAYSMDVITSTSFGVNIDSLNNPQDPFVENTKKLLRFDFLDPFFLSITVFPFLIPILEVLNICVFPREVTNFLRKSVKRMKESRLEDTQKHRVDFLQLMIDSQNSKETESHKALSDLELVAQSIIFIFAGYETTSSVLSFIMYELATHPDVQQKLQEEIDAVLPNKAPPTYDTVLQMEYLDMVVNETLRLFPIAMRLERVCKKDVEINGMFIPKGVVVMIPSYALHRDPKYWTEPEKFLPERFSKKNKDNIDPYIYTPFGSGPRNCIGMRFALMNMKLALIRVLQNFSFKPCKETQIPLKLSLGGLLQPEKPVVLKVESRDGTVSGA

Chain of CYP450 enzyme 2C9 (P11712 whole entry): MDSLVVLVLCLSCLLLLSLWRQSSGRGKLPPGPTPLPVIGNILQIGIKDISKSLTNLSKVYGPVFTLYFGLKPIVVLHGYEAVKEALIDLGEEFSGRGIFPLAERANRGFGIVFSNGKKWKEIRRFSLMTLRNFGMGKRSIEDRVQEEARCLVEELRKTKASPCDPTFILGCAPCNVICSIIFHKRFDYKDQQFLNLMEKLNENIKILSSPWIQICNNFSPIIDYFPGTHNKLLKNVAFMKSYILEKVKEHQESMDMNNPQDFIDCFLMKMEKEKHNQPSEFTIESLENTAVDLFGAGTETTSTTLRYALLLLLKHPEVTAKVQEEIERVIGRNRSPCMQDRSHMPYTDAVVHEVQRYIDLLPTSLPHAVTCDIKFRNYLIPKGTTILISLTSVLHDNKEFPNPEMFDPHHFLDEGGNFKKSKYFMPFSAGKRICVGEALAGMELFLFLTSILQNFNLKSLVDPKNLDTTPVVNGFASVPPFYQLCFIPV
Chain of CYP450 enzyme 2D6 (P10635 whole entry): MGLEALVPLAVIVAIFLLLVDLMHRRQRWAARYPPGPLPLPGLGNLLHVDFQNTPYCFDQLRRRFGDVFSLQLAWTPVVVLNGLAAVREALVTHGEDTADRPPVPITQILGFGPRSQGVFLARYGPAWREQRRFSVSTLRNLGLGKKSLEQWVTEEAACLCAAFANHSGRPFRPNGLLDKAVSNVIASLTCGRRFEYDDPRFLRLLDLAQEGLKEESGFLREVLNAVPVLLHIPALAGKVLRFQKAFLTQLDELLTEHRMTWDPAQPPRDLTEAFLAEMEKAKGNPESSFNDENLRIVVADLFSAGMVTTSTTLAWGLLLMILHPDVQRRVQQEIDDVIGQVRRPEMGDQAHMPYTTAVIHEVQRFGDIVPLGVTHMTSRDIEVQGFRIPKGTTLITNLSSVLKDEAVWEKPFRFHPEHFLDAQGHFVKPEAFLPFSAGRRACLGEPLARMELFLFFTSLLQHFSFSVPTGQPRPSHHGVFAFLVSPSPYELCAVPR
Chain of CYP450 enzyme 2C19 (P33261 whole entry): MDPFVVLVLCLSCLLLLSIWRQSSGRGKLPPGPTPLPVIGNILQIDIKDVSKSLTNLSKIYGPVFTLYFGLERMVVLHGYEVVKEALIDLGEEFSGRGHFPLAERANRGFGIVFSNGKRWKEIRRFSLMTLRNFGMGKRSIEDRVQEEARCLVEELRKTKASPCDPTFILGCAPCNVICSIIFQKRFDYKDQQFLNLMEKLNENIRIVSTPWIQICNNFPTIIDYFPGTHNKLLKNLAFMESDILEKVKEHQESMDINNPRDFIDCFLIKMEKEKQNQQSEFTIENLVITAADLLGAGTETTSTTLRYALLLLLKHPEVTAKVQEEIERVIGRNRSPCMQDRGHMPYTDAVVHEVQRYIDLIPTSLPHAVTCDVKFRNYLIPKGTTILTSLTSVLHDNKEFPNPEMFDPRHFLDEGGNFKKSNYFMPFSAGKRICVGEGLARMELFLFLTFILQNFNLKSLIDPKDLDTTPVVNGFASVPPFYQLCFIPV

Structure (SMILES)	substrate for 2D6 ([1]; found in drug databases)	substrate for 2C9 [3]	strong, moderate or weak inhibitor of 2D6 ([1]; found in drug databases)	other results
O=C1CCc2ccc(OCCCCN3CCN(c4cccc(Cl)c4Cl)CC3)cc2N1 [Abilify]	substrate	–	–	–
CCCC(CCC)C(=O)O [Depakote]	–	substrate	–	strong, moderate or weak inhibitor of 2C19 [2]: weak inhibitor; strong, moderate or weak inhibitor of 2C9 [3]: weak inhibitor; substrate for 2B6 [4]: substrate
COc1ccc([C@@H]2Sc3ccccc3N(CCN(C)C)C(=O)[C@@H]2OC(C)=O)cc1 [Diltiazem, diltiazem]	–	–	weak inhibitor	–
O=C(CCCN1CCC(O)(c2ccc(Cl)cc2)CC1)c1ccc(F)cc1 [Haldol]	substrate	–	weak inhibitor	–
CCCCC1=NC2(CCCC2)C(=O)N1Cc1ccc(-c2ccccc2-c2nnn[nH]2)cc1 [Irbesartan]	–	substrate	–	–
CN(C)CCC[C@@]1(c2ccc(F)cc2)OCc2cc(C#N)ccc21 [Lexapro]	–	–	weak inhibitor	substrate for 3A4 [5]: substrate; substrate for 2C19 [2]: substrate
CNCCC(Oc1ccc(C(F)(F)F)cc1)c1ccccc1 (stereo not shown) [Prozac]	substrate	substrate	–	strong, moderate or weak inhibitor of 2C9 [3]: moderate inhibitor
Cc1nc2n(c(=O)c1CCN1CCC(c3noc4cc(F)ccc34)CC1)CCCC2 [Risperidone]	substrate	–	weak inhibitor	–
COCCc1ccc(OCC(O)CNC(C)C)cc1 (stereo not shown) [metoprolol]	substrate	–	–	–
Fc1ccc([C@@H]2CCNC[C@H]2COc2ccc3c(c2)OCO3)cc1 [paroxetine]	–	–	–	substrate for 2D6 [1]: substrate
